Patent US9504657B2, “Fixed dose combination therapy of Parkinson's disease” (PHARMA TWO B LTD., priority 2012, dated 2016)

Experiments:
[1] = system: dopamine levels in mouse brain; test: In vivo study of drugs in MPTP mice model of Parkinson's disease, striatal dopamine by HPLC; conditions: IP daily 12 days, rasagiline 0.15 mg/Kg, pramipexole 0.12, 0.1, 0.075 mg/Kg, alone or combined
Experimental: Male C57B1/6 mice weighing 20+/−1 g are used (6-10 mice per group). MPTP is administrated by intraperitonealy (IP) injection at a dose of 40 mg/Kg per day for 5 days. Controls are naïve untreated mice injected with saline, and MPTP treated mice injected with saline (no drug treatment). Drugs, rasagiline (0.15 mg/Kg) and pramipexole (3 different doses of 0.12, 0.1 and 0.075 mg/Kg), are given alone or in 3 fixed dose combinations of rasagiline and pramipexole. The fixed dose combinations are composed of rasagiline at a constant dose of 0.15 mg/Kg and pramipexole at 3 different doses as indicated above. Both drugs are dissolved together at saline from their stock solutions to give the final desired combination dose. The application of the drugs is done daily intraperitonealy (IP) injection 30 minutes before MPTP administration. […] The effect of the treatments is assessed by measurement of dopamine and its metabolites (dihydroxyphenylacetic acid and Homovanillic acid) in left and right striatum together taken from the mice at the end of the experiment. […]
Striatum tissue samples are homogenized in ice in 500 μl homogenization buffer (0.1M perchloric acid, 0.02% EDTA and 1% ETOH) using OMNI Tip homogenizing kit of OMNI International (intermediate speed, 3×10 seconds with 5 seconds intervals). […] The supernatants are transferred into fresh tubes and Dopamine content is analyzed by HPLC. […]

[2] = system: Parkinson's disease patients; conditions: 1 mg immediate release rasagiline added to pramipexole averaging 1.5 mg per day; cited from earlier work

In the case of C#CCN[C@@H]1CCc2ccccc21 [rasagiline], the “effect of treatment on Dopamine levels compared to saline” value [1] is given as “very low” and the “combined effect on total UPDRS score, reduction compared to placebo” value [2] is given as 2.4 UPDRS points.
